What was measured:
[1] = tested on: Septoria tritici; type: cell-based; conditions: 18° C., 7 days; 405 nm
[2] = tested on: formate dehydrogenase; experiment: Specificity control: substrate GTP replaced with formic acid; type: biochemical; conditions: formate instead of GTP; FIG. 2
Experimental: (§1) The assay is performed in a suitable buffer e.g. Tris/HCl, pH 7.8 including 1 mM Mg.Cl2, 1 mM DTT, 0.5 mM NAD, 2 units/ml formate dehydrogenase and 2.5 mM GTP Li salt. After the addition of the GTP cyclohydrolase comprising cell free extracts of step A), the reaction was monitored by measuring the absorption at 340 nm.
To distinguish between the inhibition of GTP cyclohydrolase and formate dehydrogenase in the above-mentioned assay, the subtrate GTP is replaced with formic acid.

[3] = tested on: Pyricularia oryzae; type: cell-based; conditions: 125 ppm compound solution, 50 μl + 50 μl spore suspension, 18° C., 7 days, 405 nm
[4] = tested on: Phytophthora infestans; type: cell-based; conditions: 125 ppm compound solution, 50 μl + 50 μl spore suspension, 18° C., 7 days, 405 nm
[5] = tested on: GTP cyclohydrolase II; experiment: GTP cyclohydrolase activity assay coupled to formate dehydrogenase (NADH formation, absorption at 340 nm); type: biochemical, Ashbya gossypii; conditions: cell free extract, 2.5 mM GTP, 0.5 mM NAD, 2 units/ml formate dehydrogenase; FIG. 1
Experimental: Ashbya gossypii cells may be obtained after 2 days from a culture in 3% (w/v) malt extract +0.3% (w/v) difco-soyton, pH 5.6 at 28° C. A cell-free extract can be obtained by mechanical breakage of the cells with a kitchen blender in 50 mM imidazole buffer pH 7 containing 1 mM EDTA-Na salt, 5 mM MgSO4, 10 mM KCl, 5 mM dithiothreitol and 30% (v/v) glycerol and separation of unbroken cells and debris by centrifugation.
as §1
After dissolving the respective candidate compounds in a suitable solvent e.g. DMSO, an aliquot of the afore made solution is added to the reaction mixture. The enzyme activity of this sample is compared with the activity of a control comprising the pure solvent instead of the candidate compound. The resulting relative activity was calculated as percent inhibition in relation to the sample without the candidate compound.
In FIG. 1, the GTP dependant formation of NADH in the reaction mixture and inhibition by 3-Butyl-10-(3-chlorophenyl)-10H-pyrimido[4,5-b]quinoline-2,4-dione is shown.

CCCCn1c(=O)nc2n(-c3cccc(Cl)c3)c3ccccc3cc-2c1=O [3-butyl-10-(3-chlorophenyl)-10H-pyrimido[4,5-b]quinoline-2,4-dione]
% growth compared with the 0 ppm control [1]: 0% | inhibition of formate dehydrogenase alone [2]: No inhibition | % growth compared with the 0 ppm control [3]: 47.6% | % growth compared with the 0 ppm control [4]: 39.9% | inhibition of GTP dependent formation of NADH [5]: inhibition

From patent US7435557B2 (priority 2002, dated 2008)
